Data set [1] can be described thus: Spreading of surfactant solutions on polystyrene surface (spread diameter after 30 seconds). The class given is physicochemical. Also on record: unit not given here. The method, then:
Spreading was determined using between 0.1% and 0.4% (actives) surfactant. Solutions were prepared in Milli-Pore water (deionized) where a 10 μl, drop was placed on a polystyrene surface (Petri-dish) and the spread diameter determined after 30 seconds.

Data set [2] can be described thus: Aqueous surface tension by Wilhelmy Plate method (Kruss Tensiometer). The class given is physicochemical. Conditions: ~22° C.; for CMC: 0.005M NaCl. On the procedure: The aqueous surface tension of the various surfactants was determined by the Wilhelmy Plate method using a sand-blasted platinum blade as the sensor. Measurements were made using a Kruss surface Tensiometer. Surfactant solutions were prepared between 0.00001% and 1 wt % in 0.005M NaCl at ambient temperatures (˜22° C.).

Data set [3] is described as follows: Dispersibility / cloud point of surfactant in glyphosate-isopropyl amine 480 g/L formulation. It counts as physicochemical. Conditions: for Cloud Point (50 g/L): surfactant at 5% in glyphosate 480 g/L formulation. On the procedure: Aqueous glyphosate-isopropyl amine (480 g/L) formulations containing 5% of either Comparative-B or the composition of the present invention were prepared and evaluated for dispersion properties. The formulations were visually observed for clarity at 20-22° C., and if clear to hazy, the cloud point was also measured.
Cloud point was determined by placing 15 mL of formulation in a 20 dram vial containing a digital thermometer, and slowly heating the mixture on a magnetic stirrer/hot plate. The temperature at which the solution became opaque was recorded as the cloud point.

Data set [4] can be described thus: Impact of cosurfactant on spreading of QC-1A on polystyrene surface. Conditions: 0.2 wt % QC-1A, 0 wt % cosurfactant. It counts as physicochemical. The method, then: Spreading was determined using 0.2% (actives) total surfactant solutions, where a […] was placed on a polystyrene surface and the spread diameter determined after 30 seconds. The ratio of QC-1A to Cosurfactant was varied to determine the potential for synergistic or antagonistic effects from interaction between the two surfactants. The spread results (Actual) for each set were compared to a predicted value (weighted average) based on a linear relationship between QC-1A and the Cosurfactant.

Data set [5] has as its system Barnyardgrass (Echinochloa crus-galli). Description: Effect of adjuvant on uptake of 14C-glyphosate isopropylamine salt into Barnyardgrass. The class given is in vivo. On the procedure:
In one other embodiment herein the quaternary organosilicon surfactant composition of the present invention is such that the foliar uptake of various agricultural chemicals is faster for applications containing the quaternary organosilicon having the general formula (I) than that for equivalent applications containing a tallow amine ethoxylate.
Uptake of ^14C-glyphosate (herbicide) into Barnyardgrass (Echinochloa crus-galli) was determined at 2 and 24 hours after treatment (HAT) according to the method described by Gaskin et al. (Gaskin, R. E.; Stevens, P. J. G. 1992. Pestic. Sci. 38: 185-192.), to establish the impact of surfactant on the speed of uptake. Uptake was determined on adaxial surface of youngest fully expanded leaf; plant at 4 leaf stage, ca 10 cm tall.

Where [6] appears, read: 0.1 wt % surfactant (actives) in deionized water.
Setting [7] is: 0.2 wt % surfactant (actives) in deionized water.
The mark [8] stands for this setting: 1.00E+00 weight % surfactant in 0.005M NaCl.
[9] abbreviates: 1.00E-01 weight % surfactant in 0.005M NaCl.
The mark [10] stands for this setting: 1.00E-02 weight % surfactant in 0.005M NaCl.
The mark [11] stands for this setting: 1.00E-03 weight % surfactant in 0.005M NaCl.
Where [12] appears, read: 1.00E-04 weight % surfactant in 0.005M NaCl.
Where [13] appears, read: 1.00E-05 weight % surfactant in 0.005M NaCl.
[14] abbreviates: 3.00E-03 weight % surfactant in 0.005M NaCl.
[15] abbreviates: 0.4 wt % surfactant (actives) in deionized water.

Data on seven molecules can be found in US20160100573A1, “QUATERNARY ORGANOSILICON SURFACTANTS, METHODS OF MAKING SAME AND APPLICATIONS CONTAINING THE SAME” (Momentive Performance Materials Inc., priority 2014, published 2016).

Take `COCCOCCOCCOCCOCCOCCOCCOCCOCCC[Si](C)(C)CC[Si](C)(C)C` [Comparative-A, (CH3)3—Si—CH2CH2Si(CH3)2CH2CH2CH2O(CH2CH2O)8CH3]: the Spread diameter was determined as 43 in data set [1] (setting [6]) and 54 in data set [1] (setting [7]). This molecule also gave a CMC in data set [2] of 0.005 wt %. Also, the “Surface Tension” value in data set [2] (setting [8]) was 23.7 mN/m; in data set [2] (setting [9]) it was 24.4 mN/m; in data set [2] (setting [10]), 25.4 mN/m; in data set [2] (setting [11]), 34.8 mN/m; in data set [2] (setting [12]), 48.7 mN/m; in data set [2] (setting [13]), 62.4 mN/m. For the same molecule, the “Surface Tension” value in data set [2] (setting [14]) is reported as 30.1 mN/m.
In data set [2], “(CH3)3—Si—O—Si(CH3)(Z)—OS i(CH3)3 Where Z=—CH2CH2CH2O(CH2CH2O)8CH3 [Comparative-B]” returned a CMC of 0.01 wt %. For the same molecule, the “Surface Tension” value is on record as 20.6 mN/m in data set [2] (setting [8]); 20.7 mN/m in data set [2] (setting [9]); 21.5 mN/m in data set [2] (setting [10]); 34.2 mN/m in data set [2] (setting [11]); 45.1 mN/m in data set [2] (setting [12]); 52.9 mN/m in data set [2] (setting [13]). In addition, in data set [2] (setting [14]), the “Surface Tension” value is 27.0 mN/m. Besides, in data set [3] (5% surfactant in glyphosate-isopropyl amine 480 g/L, 20-22° C.), the “Dispersibility in the glyphosate formulation (visual)” value is listed as “insoluble in the glyphosate formulation”. Besides, in data set [3], the “Cloud Point (50 g/L)” value is “Cloudy at 20° C.^a”.
`C[N+](C)(CCCO)CC(O)COCCC[Si](C)(O[Si](C)(C)C)O[Si](C)(C)C` (stereo not drawn) [TSQ-1]: the Spread diameter in data set [1] (setting [6]) was 15; in data set [1] (setting [7]) it was 30. The molecule also showed a CMC in data set [2] of 0.009 wt %. The “Surface Tension” value came out at 19.9 mN/m in data set [2] (setting [8]); 20.2 mN/m in data set [2] (setting [9]); 22.3 mN/m in data set [2] (setting [10]); 38.3 mN/m in data set [2] (setting [11]); 55.6 mN/m in data set [2] (setting [12]); 66.7 mN/m in data set [2] (setting [13]). Also, the “Surface Tension” value in data set [2] (setting [14]) stood at 28.7 mN/m.
On to `C[N+](C)(CCCO)CC(O)COCCC[Si](C)(C)CC[Si](C)(C)C` (stereo not drawn) [QC-1A], for which, in data set [4], the “Spread Diameter (Actual)” value was found to be 48 mm. Besides, the “Spread Diameter (Predicted)” value in data set [4] (weighted average) was 48 mm.
For the molecule `C[N+](C)(CC(O)CO)CC(O)COCCC[Si](C)(C)CC[Si](C)(C)C` (stereo not drawn) [QC-2], the Spread diameter in data set [1] (setting [6]) is on record as 10; in data set [1] (setting [7]) it was 23; in data set [1] (setting [15]) it was 40. Moreover, in data set [3], the “Cloud Point (50 g/L)” value was greater than 95 °C.
Consider `C[N+](C)(CCCO)CC(O)COCCC[Si](C)(C)CC[Si](C)(C)C` (stereo not drawn) [QC-1], for which the Spread diameter in data set [1] (setting [6]) was found to be 13; in data set [1] (setting [7]) it was 33; in data set [1] (setting [15]) it was 47. The “Glyphosate uptake relative to TAE-2” value in data set [5] (2 HAT, even at a 4x lower use rate) was “significantly enhances glyphosate uptake”. Moreover, the “Uptake % of 14C-glyphosate” value was 40.1 d % in data set [5] (adjuvant 0.05 % w/v, 2 HAT); 57.6 be % in data set [5] (adjuvant 0.05 % w/v, 24 HAT); 34.8 e % in data set [5] (adjuvant 0.1 % w/v, 2 HAT); 56.2 c % in data set [5] (adjuvant 0.1 % w/v, 24 HAT); 36.2 de % in data set [5] (adjuvant 0.2 % w/v, 2 HAT); 61.6 b % in data set [5] (adjuvant 0.2 % w/v, 24 HAT). For the same molecule, in data set [3], the “Cloud Point (50 g/L)” value is greater than 95 °C.
For the molecule `CCCC[N+](C)(C)CC(O)COCCC[Si](C)(C)CC[Si](C)(C)C` (stereo not drawn) [QC-3], the Spread diameter in data set [1] (setting [6]) came to 14; in data set [1] (setting [7]) it was 23; in data set [1] (setting [15]), 36. Further, the “Cloud Point (50 g/L)” value in data set [3] was “Hazy at 20 °C”.
